Laboratory results reported in patent US12343676B2, “Process and system for capture of carbon dioxide” (COMMONWEALTH SCIENTIFIC AND INDUSTRIAL RESEARCH ORGANISATION, priority 2017, dated 2025).
Where two headings read alike, the source gives them in different places.

Key:
[1] = Carbamate stability constants with enthalpies and entropies, 15.0-45.0 °C; format: physicochemical
[2] = Bubble reactor precipitation propensity with pure CO2; format: physicochemical; details: pure CO2 at atmospheric pressure, ambient temperature, aqueous
Experimental: As part of the absorbent screening process concentrated aqueous 3-AMPy was evaluated for its potential to form solid precipitates in the presence of CO2 at high concentrations. […] A simple bubble reactor was utilised to determine the precipitation propensity while passing a pure CO2 gas stream at atmospheric pressure into a concentrated 3-AMPy solution held at ambient temperature. A concentration of 80 wt % 3-AMPy was achieved before precipitation of the carbamate salt was observed. While a precipitate was observed, it is unlikely this will occur in the pilot plant given the aggressive conditions employed in the simple lab based study. Furthermore, similar precipitation behaviour has been observed for other common aqueous amines in highly concentrated solutions but which are operated successfully in pilot plants.

[3] = Protonation constants with enthalpies and entropies, 15.0-45.0 °C; format: physicochemical; details: for ΔH° of log K carb Prot 2 / ΔH° of log K prot / ΔS° of log K carb Prot 2 / ΔS° of log K prot: 15.0-45.0 °C
Source text: From the data in Table 2 the first protonation constants of AMPy, log K prot, are similar to MEA and BZA and fall within a suitable range for CO2 capture processes. Importantly, the large and desired protonation enthalpy (ΔH°) observed for BZA is largely maintained in the AMPy derivatives (−53.9 to −46.6).

pKa at 25 °C = format: physicochemical
[4] = cited from earlier work
[5] = water, Table 7, (aminomethyl)pyridines, read-out: pKa of conjugate acid at 25° C. in water

SMILES	ΔH° of log K carb ([1]; 15.0-45.0 °C) [kJ · mol^−1]	ΔS° of log K carb ([1]; 15.0-45.0 °C) [J · mol^−1 · K^−1]	log K carb (carbamate stability constant) ([1]; 15 °C)	log K carb (carbamate stability constant) ([1]; 25 °C)	log K carb (carbamate stability constant) ([1]; 35 °C)	log K carb (carbamate stability constant) ([1]; 45 °C)	ΔH° of log K carb Prot 2 [3] [kJ · mol^−1]	ΔH° of log K prot [3] [kJ · mol^−1]	ΔS° of log K carb Prot 2 [3] [J · mol^−1 · K^−1]	ΔS° of log K prot [3] [J · mol^−1 · K^−1]	log K carb Prot 2 ([3]; 15 °C)	log K prot ([3]; 15 °C)	log K carb Prot 2 ([3]; 25 °C)	log K prot ([3]; 25 °C)	log K prot ([3]; 35 °C)	log K carb Prot 2 ([3]; 45 °C)	log K prot ([3]; 45 °C)	pKa (pKa at 25 °C; 25 °C, read-out: pKa)	pKa (pKa at 25 °C; [5])	pKa at 25° C. ([4]; Table 8)	also measured
NCc1cccnc1 [3-AMPy, 3-(aminomethyl)pyridine]	−36.83	82.97	2.34	2.11	1.93	1.70	−14.5	−50.6	−15.2	0.8	3.42	9.11	3.34	8.83	8.51	3.17	8.26	8.6	8.8	–	concentration achieved before precipitation of the carbamate salt [2]: 80 wt %; log K carb Prot 2 ([3]; 35 °C): 3.25
OCCC1CCCCN1 (stereo not shown) [2-piperidinylethanol]	–	–	–	–	–	–	–	–	–	–	–	–	–	–	–	–	–	–	–	10.5	pKa at 25° C. [4]: 10.5
OCC1CCNCC1 [4-piperidinylmethanol]	–	–	–	–	–	–	–	–	–	–	–	–	–	–	–	–	–	–	–	10.6	pKa at 25° C. [4]: 10.6
NCc1ccccn1 [2-AMPy, 2-(aminomethyl)pyridine]	–	–	–	–	–	–	−17.9	−46.6	24.5	−10.1	1.96	8.98	1.86	8.68	8.41	1.75	8.19	8.6	8.7	–	–
OCC1CCCCN1 (stereo not shown) [2-piperidinylmethanol]	–	–	–	–	–	–	–	–	–	–	–	–	–	–	–	–	–	–	–	10.1	pKa at 25° C. [4]: 10.1
Nc1cccnc1 [3-Aminopyridine, reference compound]	–	–	–	–	–	–	–	–	–	–	–	–	–	–	–	–	–	–	–	–	pKa of conjugate acid at 25° C. in water ([4]; Table 7, aniline and aminopyridines): 6.3

Continued, in another order:

ΔH° of log K carb ([1]; 15.0-45.0 °C) [kJ · mol^−1]	ΔS° of log K carb ([1]; 15.0-45.0 °C) [J · mol^−1 · K^−1]	log K carb (carbamate stability constant) ([1]; 15 °C)	log K carb (carbamate stability constant) ([1]; 25 °C)	log K carb (carbamate stability constant) ([1]; 35 °C)	log K carb (carbamate stability constant) ([1]; 45 °C)	ΔH° of log K carb Prot 2 [3] [kJ · mol^−1]	ΔH° of log K prot [3] [kJ · mol^−1]	ΔS° of log K carb Prot 2 [3] [J · mol^−1 · K^−1]	ΔS° of log K prot [3] [J · mol^−1 · K^−1]	log K carb Prot 2 ([3]; 15 °C)	log K prot ([3]; 15 °C)	log K carb Prot 2 ([3]; 25 °C)	log K prot ([3]; 25 °C)	log K prot ([3]; 35 °C)	log K carb Prot 2 ([3]; 45 °C)	log K prot ([3]; 45 °C)	pKa (pKa at 25 °C; 25 °C, read-out: pKa)	pKa (pKa at 25 °C; [5])	SMILES	pKa at 25° C. ([4]; Table 8)	also measured
−36	−82	2.20	2.01	1.81	1.58	–	−59.5	–	20	–	9.77	–	9.43	8.95	–	8.61	–	–	NCc1ccccc1 [BZA, benzylamine, reference compound]	–	–
−30.05	−58.97	2.35	2.22	2.02	1.84	−25.5	−53.9	15.3	19.6	3.84	8.77	3.65	8.43	8.08	3.41	7.86	8.6	8.4	NCc1ccncc1 [4-AMPy, 4-(aminomethyl)pyridine]	–	ΔH° of log K carb Prot ([1]; 15.0-45.0 °C): −38.08 kJ · mol^−1; ΔS° of log K carb Prot ([1]; 15.0-45.0 °C): 4.91 J · mol^−1 · K^−1; log K carb Prot ([1]; 15 °C): 7.15; log K carb Prot ([1]; 25 °C): 6.95; log K carb Prot ([1]; 35 °C): 6.69; log K carb Prot ([1]; 45 °C): 6.52; log K carb Prot 2 ([3]; 35 °C): 3.48
−18	−35	1.85	1.76	1.66	1.55	–	–	–	–	–	–	–	–	–	–	–	–	–	NCCO [MEA, monoethanolamine, reference compound]	–	–
